Source: patent US11413322B2, “Immunotherapy for angiogenic disease” (International Institute of Cancer Immunology, Inc., priority 2014, dated 2022)
Entries after “also recorded” stand apart in the source; their conditions may differ. Ends that are not written are not given here.

Legend:
[1] = system: laser-induced choroid coat angiogenesis; assay: Mouse model of laser-induced choroid coat angiogenesis, WT1 peptide vaccine (Example 1); type: in vivo, mouse (C57BL/6J)
Protocol: Male C57BL/6J mice (provided by CLEA Japan, Inc.) were used. At the beginning of the experiment, the mice were 8 weeks old (body weight: about 20 to 25 g). The mice were free-fed with laboratory chow (manufactured by Oriental Yeast Co., Ltd.) and tap water. Six mice were used for each administration group.
The resultant was diluted to 0.227 or 2.27 mg/mL with sterilized PBS. The resultant WT1 solution and Montanide ISA51 VG were mixed so that the volume ratio was 1:1.27 to prepare emulsions of 0.1 μg/μL, 1 μg/μL, and 10 μg/μL. Each of the emulsions was intracutaneously administered at 10 μL/body. Administered doses were 1 μg/body, 10 μg/body, and 100 μg/body. Timing of administrations were on 15, 22, 29, and 36 days after photocoagulation.
Specifically, with respect to the mice of administration groups (groups 1 to 4) administered with the test substance (WT1 peptide), the administration was carried out through the following procedure.
(1) Grouping was carried out on the basis of area of fluorescence leakage on 14 days after the photocoagulation.
(3) Abdomen was shaved with hair clippers, and then intracutaneous administration was carried out using a 30 G injection needle.
(3) Photocoagulation was carried out using Multi Color Laser Photocoagulator (red) (manufactured by NIDEK CO., LTD.) under the following coagulation conditions: spot size of 50 μm, output of 60 mW, and coagulation time of 0.1 second. […]
(2) Dilatation of pupils was carried out with Mydrin-P, and then general anesthesia was performed by intramuscular administration at 1 mL/kg of a mixture of Ketalar injection (manufactured by DAIICHI SANKYO COMPANY, LIMITED) and Celactal injection (manufactured by Bayer) (7:1). (3) Fluorescite (Manufactured by Alcon, Inc.) was injected at 0.1 mL/kg via the tail vein, and then fluorescence ocular fundus angiography was carried out using Micron III. (4) An area of fluorescence leakage was calculated using an image analysis software. […]

[2] = system: choroidal neovascular area; assay: Mouse laser-induced choroidal neovascularization, WT1235m and WT1332 (Example 2); type: in vivo, mouse (CBF-1); conditions: 200 μg/body intracutaneous, 4 administrations, FIG. 5; for choroidal neovascular area compared to PBS administration group: time course 2 to 6 weeks
Protocol: Two species of WT1 peptides: WT1235m ([…](SEQ ID NO: 19)) and WT1332 ([…](SEQ ID NO: 32)) were used as test substances, and following setting of administration groups were provided to conduct an experiment in the same method and procedure as Example 1. The WT1235m was a peptide in which methionine in position 2 of WT1235 (SEQ ID NO: 9) was replaced with tyrosine.
Fluorescence ocular fundus angiography was carried out at 2 weeks, 3 weeks, 4 weeks, 5 weeks, and 6 weeks after the photocoagulation to analyze time-dependent change of choroidal neovascular area. […] In WT1332 administration group, choroidal neovascular area at 6 weeks after the photocoagulation was reduced to about 70% of choroidal neovascular area at 2 weeks after the photocoagulation.

| Sequence | choroidal neovascular area at 6 weeks after the photocoagulation relative to area at 2 weeks after the photocoagulation ([1]; WT135 group, dose not specified (1, 10, 100 μg/body applied), intracutaneous, FIG. 4) | choroidal neovascular area, change with administration (vs PBS administration group) ([1]; any applied dose of 1, 10 and 100 μg/body intracutaneous, time course 2 to 6 weeks, FIG. 3, FIG. 4) | choroidal neovascular area at 6 weeks after the photocoagulation compared with 2 weeks (in words) ([2]; CBF-1 mice) | choroidal neovascular area compared to PBS administration group [2] | choroidal neovascular area at 6 weeks after the photocoagulation relative to area at 2 weeks after the photocoagulation ([2]; CBF-1 mice) |
| --- | --- | --- | --- | --- | --- |
| APVLDFAPPGASAYGSLG [WT135, WT1 peptide] | about 50% | Decrease in choroidal neovascular area; also recorded: decreasing trend | – | – | – |
| CYTWNQMNL [WT1235m] | – | – | the same as that at 2 weeks after the photocoagulation | Decrease in choroidal neovascular area | – |
| KRYFKLSHLQMHSRKH [WT1332, WT1 peptide] | – | – | – | Decrease in choroidal neovascular area | about 70% |
